Test results as given in patent EP0645379A2, “Benzoylacetylene derivatives” (priority 1993, dated 1995).
Counter-ions that a name gives are not always drawn. Like-named read-outs stand apart in the source and are kept apart here.

Tests used:
KB cell = experiment: Cancer cell growth inhibitory activity (KB cells, MTT colorimetric determination); format: cell-based, human
Procedure: In order to evaluate tyrosine kinase inhibitory activity and cancer cell growth inhibitory activity for tyrosine kinase inhibitor of the invention, tests were carried out in partially purified human EGF (epidermal growth factor) receptor tyrosine kinase activity detemination system and in a cell incubation system using human cancer cells. Furthermore, in order to compare and evaluate strength of inhibitory activity, relatively higher active ones amongst known tyrosine kinase inhibitors disclosed in patents or literatures were tested simultaneously.
Accordingly, the KB cell was used to evaluate the effect of test compounds on the growth of cultured cancer cells.
KB cells were plated on a 96-well dish (2.5x 10^3 cell/well) and cultured for 24 hours at 37 ° C under 5% C02 atmosphere in DMEM:F12 (1:1) medium containing 10% FCS, 50 µg/ml penicillin, and 50µg/ml streptomycin. To the culture medium was added a test compound dissolved in DMSO (DMSO final concentration < 0.1%), and the cells were cultured for three days under the same conditions. The test compound was exchanged every 24 hours together with the culture medium.
The amount of living cells were measured by calorimetric determination at wave lengths of 550 nm and 650 nm after developing colour by MTT (3-[4,5-Dimethylthiazol-2-yl]-2,5-diphenyltetrazolium bromide), in accordance with the method of Michael C. Alley et al. (Cancer Research 48 589, 1988).
Cancer cell growth inhibitory activity (CCGIA) was determined according to the following equation. [formula] Symbols "a" and "b" represent the colorimetric values determined in the cancer cell growth assay with and without the test compounds, respectively.

[1] = target: T1, partially purified human EGF (epidermal growth factor) receptor tyrosine kinase (Homo sapiens, UniProt P00533); experiment: biochemical
T1 construct: The cell membrane fraction, a partially purified EGF receptor, was used as an enzyme source; endogenous in cells; host or cells: A431 human epidermoid carcinoma cells (membrane fraction, 10000xg pellet)
T1 sequence (P01133 971-1023): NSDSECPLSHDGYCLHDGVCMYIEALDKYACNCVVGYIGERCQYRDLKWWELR
T1 sequence (P00533 25-1210): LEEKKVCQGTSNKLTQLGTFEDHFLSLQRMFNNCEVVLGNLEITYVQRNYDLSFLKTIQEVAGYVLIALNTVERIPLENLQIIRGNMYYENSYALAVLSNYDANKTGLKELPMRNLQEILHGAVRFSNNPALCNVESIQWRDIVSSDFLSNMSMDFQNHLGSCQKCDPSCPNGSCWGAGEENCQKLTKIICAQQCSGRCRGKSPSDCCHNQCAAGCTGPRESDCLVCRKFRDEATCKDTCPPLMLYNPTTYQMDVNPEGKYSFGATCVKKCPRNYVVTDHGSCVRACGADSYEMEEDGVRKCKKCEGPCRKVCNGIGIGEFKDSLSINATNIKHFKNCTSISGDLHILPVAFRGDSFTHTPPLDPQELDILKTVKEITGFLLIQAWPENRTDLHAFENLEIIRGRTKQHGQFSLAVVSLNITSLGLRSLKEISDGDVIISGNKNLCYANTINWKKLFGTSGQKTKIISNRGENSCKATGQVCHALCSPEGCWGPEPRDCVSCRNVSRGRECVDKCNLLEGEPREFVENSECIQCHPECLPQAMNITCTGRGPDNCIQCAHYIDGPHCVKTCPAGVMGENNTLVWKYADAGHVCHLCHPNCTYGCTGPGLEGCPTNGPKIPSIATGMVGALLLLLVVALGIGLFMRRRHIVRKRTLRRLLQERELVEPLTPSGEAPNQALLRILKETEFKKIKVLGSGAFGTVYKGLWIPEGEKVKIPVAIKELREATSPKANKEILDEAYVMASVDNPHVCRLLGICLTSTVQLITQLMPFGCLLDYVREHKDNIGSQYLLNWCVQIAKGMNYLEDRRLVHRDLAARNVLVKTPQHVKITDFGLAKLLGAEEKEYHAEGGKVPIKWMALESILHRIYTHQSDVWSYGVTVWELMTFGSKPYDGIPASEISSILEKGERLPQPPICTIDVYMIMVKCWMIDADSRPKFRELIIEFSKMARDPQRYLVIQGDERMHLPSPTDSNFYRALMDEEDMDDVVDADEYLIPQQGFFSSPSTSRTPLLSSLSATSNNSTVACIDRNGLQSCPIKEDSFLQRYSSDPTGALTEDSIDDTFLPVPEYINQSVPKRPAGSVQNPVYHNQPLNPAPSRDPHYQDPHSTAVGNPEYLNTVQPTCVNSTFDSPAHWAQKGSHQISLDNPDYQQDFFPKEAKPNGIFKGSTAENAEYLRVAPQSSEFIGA

[2] = Homo sapiens, 72 h; Table-3; KB cells, three days culture, MTT; 3) fumarate, 4) hydrochloride
[3] = Table-2; […]; 3) fumarate, 4) hydrochloride, read-out: Tyrosine kinase inhibitory activity (IC50)
[4] = Table-2 continued; […]; 4) hydrochloride, read-out: Tyrosine kinase inhibitory activity (IC50, μ)

Structure (SMILES) | IC50 (KB cell; [2]) | IC50 [1, 3] | IC50 [1, 4] | IC50 (KB cell; Table-3; KB cells, three days culture, MTT; 3) fumarate, 4) hydrochloride)
N#CC(=Cc1ccc(O)c(O)c1)C(=O)Nc1ccccc1 [[drawing] 1)] | 17000 nM |  |  | 
CCOc1cc(C=C(C#N)C(N)=O)cc(CSc2ccccc2)c1O [[drawing] 2)] | 52000 nM | 3200 nM |  | 
C#CC(=O)c1ccc(OC)c(OC)c1 [compound 2] | 13000 nM |  |  | 
COc1ccc(C(=O)C#CC(C)(C)C)cc1OC [compound 8] | 2200 nM |  |  | 
COc1ccc(C(=O)C#Cc2ccccc2)cc1OC [compound 19] | 2650 nM | 670 nM |  | 
COc1ccc(C(=O)C#Cc2ccccn2)cc1OC [compound 69] | 1520 nM | 240 nM |  | 
COc1ccc(C(=O)C#CC(=O)Nc2ccccc2)cc1OC [compound 197] |  | 1000 nM |  | 
CCN(CC)CC#CC(=O)c1ccc(OC)c(OC)c1 [compound 222] | 840 nM |  | 13 nM | 
COc1ccc(C(=O)C#CCN(C(C)C)C(C)C)cc1OC [compound 242] | 2100 nM | 35 nM |  | 
COc1ccc(C(=O)C#CCN2CCCCC2)cc1OC [compound 287] | 1600 nM | 470 nM |  | 
COc1ccc(C(=O)C#CCN2C(C)(C)CCCC2(C)C)cc1OC [compound 313] | 1000 nM | 180 nM |  | 
COc1ccc(C(=O)C#CCNC(=O)OC(C)(C)C)cc1OC [compound 388] | 1100 nM |  | 69 nM | 
COc1ccc(C(=O)C#CC(C)(C)N)cc1OC [compound 395, 4-amino-1-(3,4-dimethoxy)phenyl-1-oxo-4-methyl-2-pentyne hydrochloride] |  | 39 nM |  | 
COc1ccc(C(=O)C#CC(C)(C)N(C)C)cc1OC [compound 402] | 930 nM |  | 330 nM | 
CCN(CC)C(C)(C)C#CC(=O)c1ccc(OC)c(OC)c1 [compound 410] | 690 nM | 730 nM |  | 
CCN(CC)C(C)(C#CC(=O)c1ccc(OC)c(OC)c1)C(C)C (centres unmarked) [compound 455] | 560 nM | 2900 nM |  | 
COc1ccc(C(=O)C#CC(C)(C)N2CCCCC2)cc1 [compound 476] | 550 nM |  |  | 
COc1ccc(C(=O)C#CC(C)(C)N2CCCCC2)cc1OC [compound 477] | 640 nM | 1300 nM |  | 
CC(C)(C#CC(=O)c1ccc(Cl)c(Cl)c1)N1CCCCC1 [compound 480] | 510 nM |  |  | 
CC(C)(C#CC(=O)c1ccc2c(c1)OCO2)N1CCCCC1 [compound 482] | 300 nM |  |  | 
CC(C)(C#CC(=O)c1ccc(F)cc1)N1CCCCC1 [compound 483] | 340 nM |  |  | 
CSc1ccc(C(=O)C#CC(C)(C)N2CCCCC2)cc1 [compound 484] | 410 nM | 1300 nM |  | 
CN(C)c1ccc(C(=O)C#CC(C)(C)N2CCCCC2)cc1 [compound 485] | 690 nM |  |  | 
COc1cc(C(=O)C#CC(C)(C)N2CCCCC2)cc2c1OCO2 [compound 500] | 480 nM | 350 nM |  | 

Structure (SMILES) | IC50 (KB cell; [2]) | IC50 [1, 3] | IC50 [1, 4] | IC50 (KB cell; Table-3; KB cells, three days culture, MTT; 3) fumarate, 4) hydrochloride)
CC(C)(C#CC(=O)c1cc2c(cc1[N+](=O)[O-])OCO2)N1CCCCC1 [compound 501] | 1480 nM |  |  | 
CCN(CC)C1(C#CC(=O)c2ccc(OC)c(OC)c2)CCCCC1 [compound 555] | 460 nM | 1700 nM |  | 
COc1ccc(C(=O)C#CC(C)(C)O)cc1OC [compound 613] | 1410 nM | 150 nM |  | 
COc1ccc(C(=O)C#CC(C)(C)NC(=O)OCc2ccccc2)cc1OC [compound 619] | 1100 nM | 660 nM |  | 
COc1ccc(C(=O)C#CC(O)(C(C)C)C(C)C)cc1OC [compound 627] | 680 nM |  |  | 
COc1ccc(C(=O)C#C[Si](C)(C)C)cc1OC [compound 633] | 14500 nM |  |  | 
COc1ccc(C(=O)C#CC(C)(C)Nc2cccc(Cl)c2)cc1OC [compound 642] | 1500 nM |  | 96 nM | 
COc1ccc(C(=O)C#CC(C)(C)Nc2ccccc2)cc1OC [compound 643] | 1100 nM |  | 120 nM | 
COc1ccc(C(=O)C#CC(C)(C)NCC(C)C)cc1OC [compound 644] | 2800 nM |  | 66 nM | 
COc1ccc(C(=O)C#CC(C)(C)Nc2c(C)cccc2C)cc1OC [compound 645] | 3400 nM |  | 2200 nM | 
COc1ccc(C(=O)C#CC(C)(C)Nc2cccnc2)cc1OC [compound 646] | 2800 nM |  | 300 nM | 
COc1ccc(C(=O)C#CC(C)(C)NCc2ccccc2)cc1OC [compound 647] | 790 nM |  | 190 nM | 
COc1ccc(C(=O)C#CC(C)(C)NCCc2c[nH]c3ccccc23)cc1OC [compound 648] | 1600 nM |  | 37 nM | 
COc1ccc(C(=O)C#CC(C)(C)NC(=O)OCc2cccnc2)cc1OC [compound 649] | 1100 nM | 960 nM |  | 
COc1ccc(C(=O)C#CC(C)(C)NC(=O)OCc2ccc[n+](C)c2)cc1OC [compound 650] |  |  |  | 6500 nM
COc1ccc(C(=O)C#CC(C)(C)NC(=O)OCc2ccc[n+]([O-])c2)cc1OC [compound 651] | 3500 nM | 660 nM |  | 
COc1ccc(C(=O)C#CC(C)(C)NS(=O)(=O)c2ccc(OC)c(OC)c2)cc1OC [compound 652] | 1300 nM |  |  | 
COc1ccc(C(=O)C#CC(C)(NCCCO)C(C)C)cc1OC (centres unmarked) [compound 654] | 1000 nM |  | 940 nM | 
COc1ccc(C(=O)C#CC(C)(C(C)C)N(C)CCCO)cc1OC (centres unmarked) [compound 655] | 2100 nM |  |  | 
COc1cccc(C(=O)C#CC(C)(C)N2CCCCC2)c1OC [compound 664] | 680 nM |  | 930 nM | 
COc1ccc(OC)c(C(=O)C#CC(C)(C)N2CCCCC2)c1 [compound 665] | 270 nM |  | 1400 nM | 
CC(C)(C#CC(=O)c1ccc(S(C)(=O)=O)cc1)N1CCCCC1 [compound 666] | 2200 nM |  | 2600 nM | 
CC(C)(C)c1cc(C(=O)C#CC(C)(C)N2CCCCC2)cc(C(C)(C)C)c1O [compound 667] | 120 nM |  |  | 
